Experimental findings from publication PMC12650355 (2025) are described below.

Assay [1] relates to Apt2 (DNA, aptamer) ACTTCAGTGAGTTGTCCCACGGTCGGCGAGTCGGTGGTAG
The assay is described as follows: SPR (Biacore T200), single concentration. Particulars: 100 mM Na+, 5 mM K+, 2 mM Mg2+, 1 mM Ca2+ (sample diluent Buf1), diluent Buf1 pH 7.4, SA-coated CM5 chip.

Assay [2] has the same test system. The assay is described as follows: SPR (Biacore T200), steady-state fit. Particulars: 100 mM Na+, 5 mM K+, 2 mM Mg2+, 1 mM Ca2+ (sample diluent Buf1); running buffer PBS; diluent Buf1, 20 mM Tris-HCl pH 7.4; SA-coated CM5 chip.
Where [3] appears, read: 6.4 μM tested, running buffer PBS not restated.

With `CS(=O)(=O)c1ccc([C@@H](O)[C@@H](CF)NC(=O)C(Cl)Cl)cc1`, the binding result in assay [1] (setting [3]) is “no”. On the same count and under the same terms, next, `CS(=O)(=O)c1ccc([C@@H](O)[C@@H](CO)NC(=O)C(Cl)Cl)cc1`: “no”. Consider `O=C(N[C@H](CO)[C@H](O)c1ccc([N+](=O)[O-])cc1)C(Cl)Cl`, for which, in assay [2], the dissociation constant (KD) was 141 nM. In other words, the sub-micromolar range.

As for `CO/N=C(\C(=O)N[C@@H]1C(=O)N2C(C(=O)O)=C(COC(N)=O)CS[C@H]12)c1ccco1`, the binding result in assay [1] (6.4 μM tested (printed CN, CXM)) was “no”.
